The target of the experiment is T1, PDGF-R (Mus musculus, UniProt P05622).
T1 construct: endogenous in cells; host or cells: NIH 3T3 cells (lysate, immunoprecipitate)
Description: Inhibition of PDGF-R cell-free autophosphorylation. As to conditions: lysate from NIH 3T3 cells, stimulated with 10 ng/ml PDGF, [γ-^32 P]ATP, 4° C., immunoprecipitation. It is filed as biochemical. Here is the method:
In order to test the present compounds for inhibition, the following procedure using PDGF stimulation is used. "IC50," as used below refers to the concentration of inhibitor ([…]) at which the rate of autophosphorylation is halved, compared with media containing no inhibitor.
Inhibition of PDGF-R Autophosphorylation
Lysate from NIH 3T3 cells was diluted one-third in Triton-free buffer and stimulated with 10 ng/ml PDGF for 30 minutes at 4° C. The equivalent of 1/15 of a 175. cm^2 plate of lysate was used per sample. The stimulated lysate was then immunoprecipitated with rabbit polyclonal anti-PDGF-receptor antibodies raised against a synthetic peptide from the COOH-terminal region (amino acids 1094-1106) or the human PDGF-receptor β-subunit and added to increasing concentrations of test compound of the present invention. After 10 minutes at 4° C., 10 μCi of [γ-^32 P]ATP were added and further incubated for 10 minutes at 4° C. Samples were separated by SDS-PAGE on 6% gels.
The following tables show examples of representative compounds of this invention and their test results as determined by the above inhibition of PDGF-R cell-free autophosphorylation procedure.

SMILES strings stand for the structures.

T1 sequence (P05622 32-1098): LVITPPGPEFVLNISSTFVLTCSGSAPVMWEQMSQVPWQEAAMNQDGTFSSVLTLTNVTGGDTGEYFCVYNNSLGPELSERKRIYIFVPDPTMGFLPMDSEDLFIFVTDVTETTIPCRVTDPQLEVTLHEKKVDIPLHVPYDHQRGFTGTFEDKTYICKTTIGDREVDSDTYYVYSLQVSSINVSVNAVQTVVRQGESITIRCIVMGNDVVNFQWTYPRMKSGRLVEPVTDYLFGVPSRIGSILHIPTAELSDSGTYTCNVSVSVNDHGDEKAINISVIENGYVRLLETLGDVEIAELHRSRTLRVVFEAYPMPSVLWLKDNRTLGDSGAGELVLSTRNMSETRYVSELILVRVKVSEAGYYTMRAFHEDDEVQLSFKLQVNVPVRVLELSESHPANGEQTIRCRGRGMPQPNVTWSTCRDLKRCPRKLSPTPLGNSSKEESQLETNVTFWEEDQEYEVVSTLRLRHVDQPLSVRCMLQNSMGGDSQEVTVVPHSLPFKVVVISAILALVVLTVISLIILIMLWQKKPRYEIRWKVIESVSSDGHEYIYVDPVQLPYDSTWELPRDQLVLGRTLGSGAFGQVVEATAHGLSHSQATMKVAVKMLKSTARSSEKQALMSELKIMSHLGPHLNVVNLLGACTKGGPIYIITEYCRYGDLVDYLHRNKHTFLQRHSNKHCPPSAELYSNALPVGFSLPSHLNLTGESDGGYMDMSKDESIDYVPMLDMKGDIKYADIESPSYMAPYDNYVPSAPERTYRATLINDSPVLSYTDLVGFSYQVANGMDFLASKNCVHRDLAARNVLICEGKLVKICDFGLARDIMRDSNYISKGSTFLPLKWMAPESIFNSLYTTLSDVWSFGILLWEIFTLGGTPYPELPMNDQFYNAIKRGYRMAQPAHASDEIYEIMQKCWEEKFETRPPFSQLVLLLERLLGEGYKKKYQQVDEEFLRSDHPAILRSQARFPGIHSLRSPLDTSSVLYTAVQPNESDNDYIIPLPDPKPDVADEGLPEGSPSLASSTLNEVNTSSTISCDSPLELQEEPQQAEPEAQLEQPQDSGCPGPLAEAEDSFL

For orientation: IC50 means the concentration needed to halve the response being measured. Read a high IC50 as lower potency. Compound `Clc1ccc(-c2cnc3cc4cn[nH]c4cc3n2)s1` yielded an IC50 of 2000 to 10000 nM.

Consider `COc1ccc(-c2cnc3cc4cn(C)nc4cc3n2)cc1F`, for which the IC50 was under 20 nM.

The compound `Cn1cc2cc3ncc(-c4ccc(Cl)s4)nc3cc2n1` returned an IC50 of 300 nM.

As for `COc1ccc(-c2cnc3cc4cnn(C)c4cc3n2)cc1F`, the IC50 is under 2000 nM.

As for `COc1ccc(-c2cnc3cc4cn[nH]c4cc3n2)cc1F`, the concentration for half-maximal inhibition (IC50) was under 20 nM.
